We go through 33 compounds from patent publication US20100029615A1, “BENZIMIDAZOLE DERIVATIVES” (priority 2006, published 2010).

SMILES strings stand for the structures. Counter-ions that a name gives are not always drawn.

One experiment deals with T1, SMO (Mus musculus, UniProt P56726).
T1 construct: endogenous in cells; host or cells: C3H10T1/2 (ATCC #CCL-226)
T1 sequence (P56726 33-793): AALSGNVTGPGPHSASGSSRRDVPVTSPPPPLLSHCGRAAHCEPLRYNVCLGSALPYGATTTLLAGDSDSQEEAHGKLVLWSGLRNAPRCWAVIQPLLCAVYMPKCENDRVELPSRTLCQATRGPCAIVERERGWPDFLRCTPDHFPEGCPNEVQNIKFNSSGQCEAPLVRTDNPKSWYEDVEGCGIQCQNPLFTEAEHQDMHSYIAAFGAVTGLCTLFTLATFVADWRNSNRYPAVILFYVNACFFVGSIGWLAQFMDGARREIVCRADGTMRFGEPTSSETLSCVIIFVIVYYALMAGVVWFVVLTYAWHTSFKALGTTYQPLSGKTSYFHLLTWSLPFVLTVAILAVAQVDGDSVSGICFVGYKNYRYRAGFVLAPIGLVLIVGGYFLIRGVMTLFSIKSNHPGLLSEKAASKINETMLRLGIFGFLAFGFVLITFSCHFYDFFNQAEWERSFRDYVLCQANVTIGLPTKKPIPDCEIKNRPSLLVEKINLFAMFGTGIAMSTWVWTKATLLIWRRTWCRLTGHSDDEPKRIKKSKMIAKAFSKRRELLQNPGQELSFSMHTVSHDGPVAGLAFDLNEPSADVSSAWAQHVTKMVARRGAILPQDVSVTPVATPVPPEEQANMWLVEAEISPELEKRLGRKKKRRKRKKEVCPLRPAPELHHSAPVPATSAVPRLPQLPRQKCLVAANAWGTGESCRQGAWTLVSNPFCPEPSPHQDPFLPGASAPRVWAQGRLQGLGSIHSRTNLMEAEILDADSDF
In words: Smoothened (SMO)/Sonic Hedgehog (SHh) Transient Transcriptional Activation Assay (Gli-luciferase reporter in C3H10T1/2 cells). The format is cell-based, murine. As to conditions: 2 μM test compound, SHh 250 ng/ml, 20 hrs. The essentials:
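C3H10T1/2 cells transiently transfected with a 10× murine Gli-responsive firefly luciferase reporter plus pEGFP, serum-starved 20 h in 0.5% calf serum, then treated with compounds (2 uM–2 nM final) and 250 ng/ml recombinant human SHh for 20 h at 37 °C. Read-out: Dual-Glo luminescence.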
On the technique in general: A reporter such as luciferase makes a cellular process visible.
With `Cl.O=C(N[C@H]1CCC[C@H](c2nc3ccccc3[nH]2)C1)c1ccc2c(c1)CN(CC1CC1)CC2` [Example 291, N-[(1S,3S)-3-(1H-benzimidazol-2-yl)cyclohexyl]-2-(cyclopropyl-methyl)-1,2,3,4-tetrahydroisoquino-line-7-carboxamide HCl], the “SMO CELL % INHIBITION @ 2 μM” value is 85.2%.

The same experiment, now with this note: C3H 10T1/2, 2 uM test compound, SHh 250 ng/ml, 20 hrs, read-out: SMO % inhibition at 2 uM.
With `COc1cc(OC)cc(C(=O)NC2CCCC(c3nc4ccccc4n3CCO)C2)c1` (racemic) [Example 13, N-(3-(1-(2-Hydroxyethyl)-1H-benzo[d]imidazol-2-yl)cyclohexyl)-3,5-dimethoxybenzamide (cis-isomer)], the inhibition at 2 µM amounted to 98%.

For the compound `CCn1c(C2CCCC(NC(=O)c3ccc4c(c3)OCCO4)C2)nc2ccccc21` (stereo not drawn) [Example 6, N-(3-(1-Ethyl-1H-benzo[d]imidazol-2-yl)cyclohexyl)-2,3-dihydrobenzo[b][1,4]dioxine-6-carboxamide], the inhibition at 2 µM worked out at 58%.

On to `O=C(Cc1nc2ccc(Cl)cc2[nH]1)NC1CCCC(c2nc3ccccc3[nH]2)C1` (stereo not drawn) [Example 46, N-(3-(1H-Benzo[d]imidazol-2-yl)cyclohexyl)-2-(6-chloro-1H-benzo[d]imidazol-2-yl)acetamide], for which the inhibition at 2 µM turned out to be 108%.

Take `COc1cc(OC)cc(C(=O)NC2CCCC(c3nc4cc(Cl)ccc4[nH]3)C2)c1` (stereo not drawn) [Example 25, N-(3-(6-Chloro-1H-benzo[d]imidazol-2-yl)cyclohexyl]-3,5-dimethoxybenzamide]: the inhibition at 2 µM came out at 99%.

`O=C(Nc1ccc(C(F)(F)F)cc1)N[C@@H]1CCC[C@H](c2nc3ccccc3[nH]2)C1` [Example 47, 1-((1R,3S)-3-(1H-Benzo[d]imidazol-2-yl)cyclohexyl]-3-(4-(trifluoromethyl)phenyl)urea]: the inhibition at 2 µM is 108%.

`CN(C)c1ccc2nc(C3CCCC(NC(=O)c4ccc5c(c4)OCCO5)C3)[nH]c2c1` (stereo not drawn) [Example 39]: the inhibition at 2 µM is 102%.

`CN(C)Cc1ccc2nc([C@H]3CCC[C@@H](NC(=O)c4ccc5c(c4)OCCO5)C3)[nH]c2c1` [Example 44, N-((1R,3S)-3-(5-((Dimethylamino)methyl)-1H-benzo[d]imidazol-2-yl)cyclohexyl)-2,3-dihydrobenzo[b][1,4]dioxine-6-carboxamide]: the inhibition at 2 µM is 107%.

The same experiment, now with this note: C3H 10T1/2, 2 μM test compound, SHh 250 ng/ml, 20 hrs, read-out: SMO CELL % INHIBITION @ 2 μM.
Consider `Cc1c(C(=O)N[C@@H]2CCC[C@H](c3nc4ccccc4[nH]3)C2)oc2ccccc12` [Example 189, N-[(1R,3S)-3-(1H-benzimidazol-2-yl)cyclohexyl]-3-methyl-1-benzofuran-2-carboxamide triflouroacetate], for which the inhibition at 2 µM was 65%.

Regarding `O=C(NC12CCCC(c3nc4cc(Cl)ccc4[nH]3)(C1)C2)c1ccc2c(c1)OCCO2` [Example 272, N-[5-(5-chloro-1H-benzimidazol-2-yl)bicyclo[3.1.1]hept-1-yl]-2,3-dihydro-1,4-benzodioxine-6-carboxamide], the inhibition at 2 µM came to 110%.

For `O=C(N[C@@H]1CCC[C@H](c2nc3ccccc3[nH]2)C1)c1cccc2ccccc12` [Example 188, N-[(1R,3S)-3-(1H-benzimidazol-2-yl)cyclohexyl]-1-naphthamide triflouroacetate], the inhibition at 2 µM amounted to 64%.

With `COc1cc(OC)cc(C(=O)N[C@@H]2CCC[C@H](c3nc4cc(Cl)ccc4[nH]3)C2)c1` [Example 298, N-[(1R,3S)-3-(5-chloro-1H-benzimidazol-2-yl)cyclohexyl]-3,5-dimethoxybenz-amide (+)-tartrate], the inhibition at 2 µM is 104%.

As for `O=C1Cc2cc(C(=O)N[C@@H]3CCC[C@H](c4nc5ccccc5[nH]4)C3)ccc2N1` [Example 219, N-[(1R,3S)-3-(1H-benzimidazol-2-yl)cyclohexyl]-2-oxoindoline-5-carboxamide triflouroacetate], the inhibition at 2 µM amounted to 87%.

`O=C(N[C@@H]1CCC[C@H](c2nc3ccccc3[nH]2)C1)c1cc2ccccc2s1` [Example 182, N-[(1R,3S)-3-(1H-benzimidazol-2-yl)cyclohexyl]-1-benzothiophene-2-carboxamide triflouroacetate]: the inhibition at 2 µM is 106%.

In the case of `CC(C(=O)NC1CCCC(c2nc3ccccc3[nH]2)C1)n1cccn1` (stereo not drawn) [Example 142, N-[3-(1H-benzimidazol-2-yl)cyclohexyl]-2-(1H-pyrazol-1-yl)propanamide triflouroacetate], the inhibition at 2 µM was 69%.

On to `CN1C(=O)COc2ccc(C(=O)N[C@@H]3CCC[C@H](c4nc5ccccc5n4C)C3)cc21` [Example 297, 4-methyl-N-[(1R,3S)-3-(1-methyl-1H-benzimidazol-2-yl)cyclohexyl]-3-oxo-3,4-dihydro-2H-1,4-benzoxazine-6-carboxamide (+)-tartrate], for which the inhibition at 2 µM was 106%.

In the case of `O=C(NC12CCCC(c3nc4cc(C(F)(F)F)ccc4[nH]3)(C1)C2)c1cc2c(cn1)OCCO2` [Example 263, N-{5-[5-(trifluoromethyl)-1H-benzimidazol-2-yl]bicyclo[3.1.1]hept-1-yl}-2,3-dihydro[1,4]di-oxino[2,3-c]pyridine-7-carboxamide], the inhibition at 2 µM amounted to 91.4%.

As to `[N-]=[N+]=Nc1ccc(C(=O)NC23CCCC(c4nc5ccccc5[nH]4)(C2)C3)cc1` [Example 277, 4-azido-N-[5-(1H-benzimidazol-2-yl)bicyclo[3.1.1]hept-1-yl]benzamide], the inhibition at 2 µM amounted to 82.3%.

For the compound `Cc1ccoc1C(=O)NC1CCCC(c2nc3ccccc3[nH]2)C1` (stereo not drawn) [Example 93, N-[3-(1H-benzimidazol-2-yl)cyclohexyl]-3-methyl-2-furamide triflouroacetate], the inhibition at 2 µM was 24%.

For the compound `COc1cc(OC)cc(C(=O)NC23CCCC(c4nc5cc(C(F)(F)F)ccc5[nH]4)(C2)C3)c1` [Example 259, 3,5-dimethoxy-N-{5-[5-(trifluoromethyl)-1H-benzimidazol-2-yl)bicyclo[3.1.1]hept-1-yl}benzamide], the inhibition at 2 µM worked out at 95.5%.

As to `O=C(NC1CCCC(c2nc3ccccc3[nH]2)C1)c1ccc(CN2CCOCC2)o1` (stereo not drawn) [Example 134, N-[3-(1H-benzimidazol-2-yl)cyclohexyl]-5-(morpholin-4-ylmethyl)-2-furamide triflouroacetate], the inhibition at 2 µM was found to be 101%.

As for `O=C(NC1CCCC(c2nc3ccc(C(F)(F)F)cc3[nH]2)C1)c1ccc2c(c1)OCCO2` (stereo not drawn) [Example 84, N-{3-[6-(trifluoromethyl)-1H-benzimidazol-2-yl]cyclohexyl}-2,3-dihydro-1,4-benzodioxine-6-carboxamide-HCl], the inhibition at 2 µM amounted to 101%.

Take `Cc1n[nH]c(C)c1/C=C/C(=O)NC1CCCC(c2nc3ccccc3[nH]2)C1` (stereo not drawn) [Example 136, (2E)-N-[3-(1H-benzimidazol-2-yl)cyclohexyl]-3-(3,5-dimethyl-1H-pyrazol-4-yl)acrylamide triflouroacetate]: the inhibition at 2 µM turned out to be 86%.

For `O=C(Nc1ccc(F)c(C(F)(F)F)c1)NC12CCCC(c3nc4ccccc4[nH]3)(C1)C2` [Example 255, 1-(5-(1H-benzo[d]imidaz-ol-2-yl)bicyclo[3.1.1]heptan-1-yl)-3-(4-fluoro-3-(trifluoromethyl)phenyl)urea HCL], the inhibition at 2 µM is 101%.

For `O=C(CN1C(=O)COc2cccnc21)NC1CCCC(c2nc3ccccc3[nH]2)C1` (stereo not drawn) [Example 105, N-[3-(1H-benzimidazol-2-yl)cyclohexyl]-2-(3-oxo-2,3-dihydro-4H-pyrido[3,2-b][1,4]oxazin-4-yl)acetamide triflouroacetate], the inhibition at 2 µM is 103%.

Regarding `O=C(NC1CCCC(c2nc3ccccc3[nH]2)C1)c1ccc2c(c1)OCO2` (stereo not drawn) [Example 58, N-[3-(1H-benzimidazol-2-yl)cyclohexyl]-1,3-benzodioxole-5-carboxamide HCl], the inhibition at 2 µM was found to be 82%.

In the case of `[N-]=[N+]=Nc1c(F)c(F)c(C(=O)NC23CCCC(c4nc5cc(C(F)(F)F)ccc5[nH]4)(C2)C3)c(F)c1F` [Example 302, 4-azido-2,3,5,6-tetrafluoro-N-{5-[5-(trifluoromethyl)-1H-benzimidazol-2-yl]bicyclo[3.1.1]hept-1-yl}benzamide], the inhibition at 2 µM was 97.1%.

For `O=C(N[C@H]1CCC[C@@H](c2nc3cc(Br)ccc3[nH]2)C1)c1ccc2c(c1)OCCO2` [Example 150, N-[(1S,3R)-3-(5-bromo-1H-benzimidazol-2-yl)cyclohexyl]-2,3-dihydro-1,4-benzodioxine-6-carboxamide HCl], the inhibition at 2 µM was 45%.

With `Cc1ccn2cc(CCC(=O)NC3CCCC(c4nc5ccccc5[nH]4)C3)nc2c1` (stereo not drawn) [Example 156, N-[3-(1H-benzimidazol-2-yl)cyclohexyl]-3-(7-methylimidazo [1,2-a]pyridin-2-yl)propanamide triflouroacetate], the inhibition at 2 µM is 53%.

`O=C(NC1CCCC(c2nc3ccc(F)c(F)c3[nH]2)C1)c1ccc2c(c1)OCCO2` (stereo not drawn) [Example 81, N-[3-(6,7-difluoro-1H-benzimidazol-2-yl)cyclohexyl]-2,3-dihydro-1,4-benzodioxine-6-carboxamide HCl]: the inhibition at 2 µM was 103%.

Consider `CN1c2ccccc2OCC1CC(=O)NC1CCCC(c2nc3ccccc3[nH]2)C1` (stereo not drawn) [Example 94, N-[3-(1H-benzimidazol-2-yl)cyclohexyl]-2-(4-methyl-3,4-dihydro-2H-1,4-benzoxazin-3-yl)acetamide triflouroacetate], for which the inhibition at 2 µM was determined as 96%.

In the case of `O=C(N[C@@H]1CCC[C@H](c2nc3ccccc3[nH]2)C1)c1ccc2c(c1)OCCO2` [Example 64, N-[(1R,3S)-3-(1H-benzimidazol-2-yl)cyclohexyl]-2,3-dihydro-1,4-benzodioxine-6-carboxamide triflouroacetate], the inhibition at 2 µM amounted to 108%.

As to `Cc1ccc(C(=O)NC2CCCC(c3nc4ccccc4[nH]3)C2)c(Cl)n1` (stereo not drawn) [Example 124, N-[3-(1H-benzimidazol-2-yl)cyclohexyl]-2-chloro-6-methylnico-tinamide triflouroacetate], the inhibition at 2 µM amounted to 62%.

For orientation: inhibition means the change of the read-out against control, counted positive when it falls.
